The record followed here is ChEMBL document CHEMBL1151378, “Anticancer indole alkaloids of Rhazya stricta” (1981).

Converted amounts (≈) assume the structure as drawn.

One experiment concerns P388. The experiment can be described thus: Cytotoxicity against mouse P388 cells. The experiment is classed as functional. The conditions noted are these: read-out: ED50 (the source's name).
The test system of the next experiment is KB. The experiment is described as follows: Cytotoxicity against human KB cells. The conditions noted are these: read-out: ED50 (the source's name). The experiment is classed as functional.

Turning to `CCC1CCCN(CCc2c([C@H]3CCCc4c(CCN5CCCC(CC)C5)c5ccccc5n43)[nH]c3ccccc23)C1` (stereo partly drawn), the EC50 in the experiment with P388 worked out at 0.29 µg/mL (≈ 0.513 µM); with KB, 0.5 µg/mL (≈ 0.885 µM).

Regarding `CCC1CCCN(CCc2c([C@@]3(COC(C)=O)CC[C@@H](COC(C)=O)c4c(CCN5CCCC(CC)C5)c5ccccc5n43)[nH]c3ccccc23)C1` (stereo partly drawn), the EC50 came to 1.6 µg/mL (≈ 2.26 µM) in the experiment on P388 and 2.4 µg/mL (≈ 3.39 µM) in the experiment with KB.

For the compound `C/C=C1/CN2[C@H]3Cc4c([nH]c5ccccc45)[C@@H]2C[C@@H]1[C@@]3(CO)C(=O)OC` [POLYNEURIDINE], the EC50 with P388 and in the experiment on KB was above 100 µg/mL throughout.

As for `C/C=C1/CN2CC[C@]34C(=C(C(=O)OC)[C@H]1C[C@H]23)Nc1ccc(O)cc14` [SEWARINE], the EC50 with P388 amounted to 2.7 µg/mL (≈ 7.98 µM).

`CCC1CCCN(CCc2c([C@@]3(CO)CC[C@@H](CO)c4c(CCN5CCCC(CC)C5)c5ccccc5n43)[nH]c3ccccc23)C1` (stereo partly drawn) [TETRAHYDROSECAMINEDIOL]: the EC50 was found to be 0.33 µg/mL (≈ 0.528 µM) with P388 and 0.0038 µg/mL (≈ 0.00608 µM) in the experiment on KB.

In the case of `CCC1CCCN(CCc2c([C@@]3(C(=O)OC)CC[C@@H](C(=O)OC)c4c(CCN5CCCC(CC)C5)c5ccccc5n43)[nH]c3ccccc23)C1` (stereo partly drawn) [TETRAHYDROSECAMINE], the values for the EC50 in the experiment on P388 and in the experiment with KB were 0.4 µg/mL (≈ 0.587 µM) and 0.69 µg/mL (≈ 1.01 µM), respectively.

For the compound `C/C=C(/C=O)[C@@H]1C[C@H]2c3[nH]c4ccccc4c3CCN2C=C1C(=O)OC` [VALLESIACHOTAMINE], the EC50 in the experiment with P388 is 1.1 µg/mL (≈ 3.14 µM); with KB it was 3.56 µg/mL (≈ 10.2 µM).
